Earlier results as cited in patent publication US10441617B2, “Breeding, production, processing and use of medical cannabis” (priority 2013, dated 2019).
Like-named read-outs stand apart in the source and are kept apart here.

Legend:
CB2 receptor = CB2 receptor (Homo sapiens, UniProt P34972)
5-HT1A receptor = biological target: T1, 5-HT1A receptor (Homo sapiens, UniProt P08908)
T1 sequence (P08908 1-422): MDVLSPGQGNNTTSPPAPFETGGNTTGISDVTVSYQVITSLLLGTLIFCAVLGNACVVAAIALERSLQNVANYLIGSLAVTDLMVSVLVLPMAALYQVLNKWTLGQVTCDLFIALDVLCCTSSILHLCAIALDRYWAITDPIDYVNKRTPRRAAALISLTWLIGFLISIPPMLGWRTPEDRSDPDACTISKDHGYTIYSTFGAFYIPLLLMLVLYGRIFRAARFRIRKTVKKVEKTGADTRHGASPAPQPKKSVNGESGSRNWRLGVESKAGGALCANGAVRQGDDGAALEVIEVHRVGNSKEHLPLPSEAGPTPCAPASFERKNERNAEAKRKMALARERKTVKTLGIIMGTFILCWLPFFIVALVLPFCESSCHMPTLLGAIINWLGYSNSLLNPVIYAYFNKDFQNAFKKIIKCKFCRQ

cannabinoid receptor CB1 = cannabinoid receptor CB1 (Homo sapiens, UniProt P21554)
[1] = tested on: Mu and Delta opioid receptor sites
[2] = tested on: aggressive human breast cancer cells; conditions: in vitro
GPR55 = GPR55 (Homo sapiens, UniProt Q9Y2T6)
[3] = CBD 1-10 mg/kg IP over 21 days with equivalent doses of delta-9-THC

Sequence of CB2 receptor (P34972 whole entry): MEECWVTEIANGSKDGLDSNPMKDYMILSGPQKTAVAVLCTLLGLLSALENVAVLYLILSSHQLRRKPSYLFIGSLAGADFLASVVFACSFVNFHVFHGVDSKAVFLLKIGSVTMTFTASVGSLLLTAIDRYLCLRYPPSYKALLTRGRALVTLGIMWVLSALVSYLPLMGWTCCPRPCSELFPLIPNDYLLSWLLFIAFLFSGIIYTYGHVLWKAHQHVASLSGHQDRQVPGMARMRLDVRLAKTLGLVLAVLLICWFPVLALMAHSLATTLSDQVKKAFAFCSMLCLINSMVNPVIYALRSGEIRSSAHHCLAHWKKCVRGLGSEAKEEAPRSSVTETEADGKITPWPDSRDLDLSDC
Sequence of cannabinoid receptor CB1 (P21554 whole entry): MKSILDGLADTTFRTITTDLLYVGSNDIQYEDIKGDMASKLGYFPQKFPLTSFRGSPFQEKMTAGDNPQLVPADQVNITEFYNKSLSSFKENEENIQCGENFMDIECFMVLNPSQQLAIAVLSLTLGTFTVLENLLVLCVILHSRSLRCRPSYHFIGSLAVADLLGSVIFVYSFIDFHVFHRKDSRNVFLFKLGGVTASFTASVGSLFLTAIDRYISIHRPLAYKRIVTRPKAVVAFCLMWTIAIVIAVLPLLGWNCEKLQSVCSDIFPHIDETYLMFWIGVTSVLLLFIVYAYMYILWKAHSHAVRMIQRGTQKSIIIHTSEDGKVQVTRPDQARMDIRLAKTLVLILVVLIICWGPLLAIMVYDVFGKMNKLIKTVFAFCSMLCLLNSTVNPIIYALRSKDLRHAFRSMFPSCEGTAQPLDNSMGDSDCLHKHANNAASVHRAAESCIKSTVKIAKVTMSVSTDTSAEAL
Sequence of GPR55 (Q9Y2T6 whole entry, species assumed): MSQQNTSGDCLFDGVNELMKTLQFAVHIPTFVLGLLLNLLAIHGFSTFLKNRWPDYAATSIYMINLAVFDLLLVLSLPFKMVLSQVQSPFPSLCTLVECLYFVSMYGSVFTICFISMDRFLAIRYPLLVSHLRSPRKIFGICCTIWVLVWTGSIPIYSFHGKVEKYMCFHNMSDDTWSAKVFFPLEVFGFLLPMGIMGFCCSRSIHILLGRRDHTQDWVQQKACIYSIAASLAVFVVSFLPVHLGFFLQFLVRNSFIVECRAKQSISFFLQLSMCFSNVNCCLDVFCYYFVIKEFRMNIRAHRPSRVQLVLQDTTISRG

SMILES | Activity at CB2 receptor (CB2 receptor) | Activity at 5-HT1A receptor (5-HT1A receptor) | Activity at CB1 receptor (cannabinoid receptor CB1) | other results
CCCCCc1cc(O)c(C/C=C(\C)CCC=C(C)C)c(O)c1 [CBG, Cannabigerol] | binds to the CB2 receptor | moderate affinity 5-HT1A receptor antagonist | low affinity CB1 receptor antagonist | Activity at α2-adrenergic receptor (α2-adrenergic receptor): high affinity α2-adrenergic receptor agonist
CCCc1cc(O)c2c(c1)OC(C)(C)[C@@H]1CCC(C)=C[C@@H]21 [THCV, Tetrahydrocannabivarin] |  |  | CB1 receptor antagonist | 
C=C(C)[C@@H]1CCC(C)=C[C@H]1c1c(O)cc(CCCCC)cc1O [CBD, Cannabidiol] | no affinity | 5-HT1A receptor agonist | no affinity | Activity at Mu and Delta opioid receptor sites [1]: allosteric modulator; Growth of aggressive human breast cancer cells [2]: reduces growth; Activity at GPR55 (GPR55): antagonist; Effect of CBD on the effects of delta-9-THC (ratio of CBD/delta-9-THC 1.8): enhanced the effects of delta-9-THC; Effect of CBD on the effects of delta-9-THC (ratio of CBD/delta-9-THC around 8.1): antagonistic effects; Behavioral effects of delta-9-THC [3]: augmented the anxiogenic and locomotor suppressant effects and social interaction deficits; Blood and brain levels of delta-9-THC [3]: increased blood and brain levels
CCCCCc1cc(O)c2c(c1)OC(C)(C)c1ccc(C)cc1-2 [CBN, Cannabinol] | weak agonist |  | weak agonist | 
CCCCCc1cc(O)c2c(c1)OC(C)(C)[C@@H]1CCC(C)=CC21 (stereo partly drawn) [THC, delta-9-tetrahydrocannabinol] | partial agonist activity |  |  | 
